US10144742B2 (Millennium Pharmaceuticals, Inc., priority 2014, dated 2018)
Read-outs that look alike come from different tables or passages of the source.

Key:
[1] = target: hNAMPT protein (Homo sapiens (Human), UniProt P43490); assay: NAMPT enzyme assay (TR-FRET/HTRF, BodiPY ligand, anti 6His-Tb); format: binding; conditions: for IC50: NAMPT IC50 range class, read-out: IC50; for inhibition at 1 µM: read-out: Percent Inhibition
Method in brief: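 TR-FRET binding assay in which His-tagged human NAMPT with anti-6His-Tb is displaced by compound from a BodiPY ligand, incubated 1 h at rt in the dark. Excitation was at 320 nm, with the 520/486 nm emission ratio read. IC50 was fitted from inhibition relative to DMSO controls.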

[2] = test system: PC3 cells; assay: PC3 growth inhibition (Cell-titer glo, 72 hours); format: cell-based; conditions: Homo sapiens, PC-3, PC3 cells, 72 hours, Cell-titer glo, read-out: Percent Inhibition (PC3 growth inhibition); for inhibition at 1 µM: compound concentration 1 μM; for inhibition at 1.667 µM: compound concentration 1.667 μM
Method in brief: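 PC3 cells in RPMI1640 seeded overnight at 37 °C, 5% CO2, then exposed to compound diluted in AIM serum-free medium for 72 h. Viability by CellTiter-Glo luminescence vs DMSO controls; single-concentration % remaining viability (1 μM or 1.667 μM), or GI50/LD50 from curves.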

hNAMPT protein, sequence (P43490 whole entry): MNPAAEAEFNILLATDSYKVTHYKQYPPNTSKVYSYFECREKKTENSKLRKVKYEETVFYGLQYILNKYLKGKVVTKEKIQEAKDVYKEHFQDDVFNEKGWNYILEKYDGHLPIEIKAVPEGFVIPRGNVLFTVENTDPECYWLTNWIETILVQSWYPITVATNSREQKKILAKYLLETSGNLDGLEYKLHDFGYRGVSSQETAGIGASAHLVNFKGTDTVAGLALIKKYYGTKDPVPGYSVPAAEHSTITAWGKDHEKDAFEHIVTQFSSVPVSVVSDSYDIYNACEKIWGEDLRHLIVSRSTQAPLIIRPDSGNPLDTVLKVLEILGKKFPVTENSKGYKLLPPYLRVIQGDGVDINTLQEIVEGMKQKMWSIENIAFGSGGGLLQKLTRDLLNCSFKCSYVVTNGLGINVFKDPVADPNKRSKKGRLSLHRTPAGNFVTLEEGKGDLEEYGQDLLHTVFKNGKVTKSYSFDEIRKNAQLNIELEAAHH

| Structure (SMILES) | IC50 [1] [nM] | inhibition at 1 µM ([1]; compound concentration 1 μM) [%] | inhibition at 1 µM [2] [%] | inhibition at 1.667 µM [2] [%] | inhibition at 1 µM [1] [%] |
| --- | --- | --- | --- | --- | --- |
| O=C(NCCCn1ccnc1)c1ccc2nc(N3CCC(N4CCC(O)CC4)CC3)c(-c3ccccc3)nc2c1 [Compound I-210, 2-(4-hydroxy-1,4′-bipiperidin-1′-yl)-N-[3-(1H-imidazol-1-yl)propyl]-3-phenylquinoxaline-6-carboxamide] | < 100 | 95 | -2 | – | – |
| O=C(NCCCc1ncc[nH]1)c1ccc2nc(Cl)c(-c3ccc(F)cc3)nc2c1 [Compound I-211, 2-Chloro-3-(4-fluorophenyl)-N-[3-(1H-imidazol-2-yl)propyl]quinoxaline-6-carboxamide] | 100 to 500 | 79 | – | > 99 | – |
| O=C(NCCc1ccncc1)c1ccc2nc(-c3ccc(F)cc3)c(-c3ccc(F)cc3)nc2c1 [Compound I-212, 2,3-bis(4-fluorophenyl)-N-[2-(pyridin-4-yl)ethyl]quinoxaline-6-carboxamide] | < 100 | 95 | 101 | – | – |
| O=C(NCCCc1ncc[nH]1)c1ccc2nc(N3CCC(O)CC3)c(-c3ccc(F)cc3)nc2c1 [Compound I-213, 3-(4-fluorophenyl)-2-(4-hydroxypiperidin-1-yl)-N-[3-(1H-imidazol-2-yl)propyl]quinoxaline-6-carboxamide] | < 100 | 99 | – | 2 | – |
| Cc1ccc(-c2nc3ccc(C(=O)NCCCn4ccnc4)cc3nc2-c2ccc(C)cc2)cc1 [Compound I-214, N-[3-(1H-imidazol-1-yl)propyl]-2,3-bis(4-methylphenyl)quinoxaline-6-carboxamide] | 1000 to 2000 | 40 | 0 | – | – |
| Cn1ccc(-c2nc3cc(C(=O)NCCCn4ccnc4)ccc3nc2-c2ccccc2)n1 [Compound I-215, N-[3-(1H-imidazol-1-yl)propyl]-3-(1-methyl-1H-pyrazol-3-yl)-2-phenylquinoxaline-6-carboxamide] | 2000 to 10000 | 15 | 19 | – | – |
| O=C(NCCCc1ncc[nH]1)c1ccc2nc(OC3CCCCC3)c(-c3ccc(Cl)cc3)nc2c1 [Compound I-216, 3-(4-chlorophenyl)-2-(cyclohexyloxy)-N-[3-(1H-imidazol-2-yl)propyl]quinoxaline-6-carboxamide] | < 100 | 91 | – | 3 | – |
| CC(C)(C)OC(=O)NCc1ccccc1-c1nc2cc(C(=O)NCCCn3ccnc3)ccc2nc1-c1ccccc1 [Compound I-217, tert-butyl[2-(7-{[3-(1H-imidazol-1-yl)propyl]carbamoyl}-3-phenylquinoxalin-2-yl)benzyl]carbamate] | 2000 to 10000 | 26 | 95 | – | – |
| COc1cccc(-c2nc3cc(C(=O)NCCCn4ccnc4)ccc3nc2-c2ccccc2)c1 [Compound I-218, N-[3-(1H-imidazol-1-yl)propyl]-3-(3-methoxyphenyl)-2-phenylquinoxaline-6-carboxamide] | < 100 | 100 | 0 | – | – |
| N#Cc1cccc(-c2nc3ccc(C(=O)NCCCn4ccnc4)cc3nc2-c2ccccc2)c1 [Compound I-219, 2-(3-cyanophenyl)-N-[3-(1H-imidazol-1-yl)propyl]-3-phenylquinoxaline-6-carboxamide] | 100 to 500 | 74 | -7 | – | – |
| O=C(NCc1ccc2[nH]ncc2c1)c1ccc2nc(N3CCCCC3)c(-c3ccc(F)cc3)nc2c1 [Compound I-220, 3-(4-Fluorophenyl)-N-(1H-indazol-5-ylmethyl)-2-(piperidin-1-yl)quinoxaline-6-carboxamide] | 100 to 500 | – | – | 4 | 68 |
| O=C(NCCOc1cccnc1)c1ccc2nc(N3CCC(N4CCOCC4)CC3)c(-c3ccc(F)cc3)nc2c1 [Compound I-221, 3-(4-fluorophenyl)-2-[4-(morpholin-4-yl)piperidin-1-yl]-N-[2-(pyridin-3-yloxy)ethyl]quinoxaline-6-carboxamide] | < 100 | > 99 | – | 2 | – |
| CC(C)Oc1nc2ccc(C(=O)NCCCc3ncc[nH]3)cc2nc1-c1ccc(Cl)cc1 [Compound I-222, 3-(4-chlorophenyl)-N-[3-(1H-imidazol-2-yl)propyl]-2-isopropoxyquinoxaline-6-carboxamide] | < 100 | 92 | – | 12 | – |
| CC(=O)Nc1ccc(-c2nc3cc(C(=O)NCCCn4ccnc4)ccc3nc2-c2ccccc2)cc1 [Compound I-223, 3-(4-acetamidophenyl)-N-[3-(1H-imidazol-1-yl)propyl]-2-phenylquinoxaline-6-carboxamide] | 2000 to 10000 | 10 | 103 | – | – |
